This is an account of results in patent US20060052600A1, “Amino-functional chalcones” (priority 2002, published 2006).

Each structure is given as a SMILES string. In brackets after ≈: the same amount, converted by molar mass.

The nature of series [1]: Determination of solubility. Type of series: physicochemical. As to conditions: 0.3 M phosphate buffer, 24 hours. The protocol:
Solubility of the compounds was determined by preparing a saturated solution of compound in 0.3 M phosphate buffer (pH 7.4±0.3) in a brown glass tube. The suspensions were rotated slowly for 24 hours. Aliquots were centrifuged for 10 minutes at 14.000 rpm and supernatants were diluted in 40% (v/v) acetonitrile in water prior to HPLC analysis. Concentrations of analytes were quantified against a standard curve and used as term of solubility.
The HPLC-UV method used for the assessment of solubility is the same as used in the in vitro metabolism assay.

Series [2] is described as follows: Determination of metabolic stability (liver microsomes). Type of series: in vitro ADME, rat. The following applies: for Metabolic turn-over (rat) in vitro: 20 μM, 15 min, 37° C. How it is done:
Samples were incubated for 15 min at 37° C. and the reactions were terminated by addition of equal volumes of acetonitrile. Blank incubations were performed at the same concentration but without addition of microsomes. Both blank and microsome-containing samples were made in […] of three. […] The fraction of compound metabolised during the 15 min of incubation was determined by comparison of blank and microsome-containing samples using a Waters Alliance 2690 separation module and Waters 996 PDA-detector (Waters. […] This was followed by a 5 minutes linear gradient to initial conditions, which were maintained for 5 min. The flow rate was 0.20 ml/min and injection volume 10 μl.
A general note: Microsomes from liver hold many membrane-bound enzymes, among them those of drug oxidation.

The test system of series [3] is panel of anaerobic bacteria (Bacteroides fragilis, Clostridium perfringens, Clostridium difficele). Type of series: cell-based. The following applies: single concentration 100 μM.
In series [4] the test system is DHODH (dihydroorotate dehydrogenase). Briefly: DHODH assay. Type of series: biochemical. The following applies: test concentration not given.
Series [5] has as its system Staphylococcus aureus ATCC29213. The series can be described thus: MIC determination in broth microdilution assay.
Series [6] deals with Staphylococcus aureus ATCC33591 (resistant to methicillin). The series can be described thus: MIC determination in broth microdilution assay.
Series [7] concerns Staphylococcus intermedius #2357 (clinical isolate). Briefly: MIC determination in broth microdilution assay. On the technique in general: Dilution methods test growth across graded concentrations, often in twofold steps.
The test system of series [8] is Enterococcus faecalis ATCC29212. The series can be described thus: MIC determination in broth microdilution assay.
The subject of series [9] is Enterococcus faecium #17501 (vancomycin-resistant clinical isolate). The series can be described thus: MIC determination in broth microdilution assay.
Series [10] deals with Streptococcus pneumoniae #998 (clinical isolate). Briefly: MIC determination in broth microdilution assay.
The test system of a further series is Eschericia coli ESS. Briefly: MIC determination in broth microdilution assay.
Series [11] deals with panel of non-fastidious bacteria (Gram-positive pathogens and Eschericia coli). The series can be described thus: Activity against non-fastidious bacteria (panel, results in words). As to conditions: Gram-positive pathogens.

Turning to `COc1ccc(C(=O)/C=C/c2ccc(CNCCN(C)C)cc2)cc1` [A005, (E)-3-{4-[(2-Dimethylamino-ethylamino)-methyl]-phenyl}-1-(4-methoxy-phenyl)-propenone], the “Solubility in aqueous buffer at pH 7.4” value in [1] was over 6 mg/ml.
Turning to `COc1ccc(C(=O)/C=C/c2cccc(CNCCN(C)C)c2)cc1` [A010, (E)-3-{3-[(2-Dimethylamino-ethylamino)-methyl]-phenyl}-1-(4-methoxy-phenyl)-propenone], in series [2], the “Metabolic turn-over (rat) in vitro” value is on record as 1%. Further, in [1], the “Solubility in aqueous buffer at pH 7.4” value is listed as 33.4 mg/ml.
Regarding `CN(C)Cc1ccc(C(=O)/C=C/c2ccc(Cl)cc2Cl)cc1` [A011, (E)-3-(2,4-Dichloro-phenyl)-1-(4-dimethylaminomethyl-phenyl)-propenone], in series [3], the “activity against anaerobic bacteria” value is reported as “activity against all microorganisms within the test panel”.
In the case of `COc1ccc(C(=O)/C=C/c2cccc(CN3CCN(C)CC3)c2)cc1` [A013, (E)-1-(4-Methoxy-phenyl)-3-[3-(4-methyl-piperazin-1-ylmethyl)-phenyl]-propenone], the “Solubility in aqueous buffer at pH 7.4” value in [1] is 31.2 mg/ml.
With `CN(C)Cc1cccc(C(=O)/C=C/c2ccc(Cl)cc2Cl)c1` [A020, (E)-3-(2,4-Dichloro-phenyl)-1-(3-dimethylaminomethyl-phenyl)-propenone], in series [4], the “Inhibition of DHODH” value came out at 23%.
Same read-out and setting: in the case of `CN1CCN(Cc2cccc(C(=O)/C=C/c3ccc(Cl)cc3Cl)c2)CC1` [A021, (E)-3-(2,4-Dichloro-phenyl)-1-[3-(4-methyl-piperazin-1-ylmethyl)-phenyl]-propenone] it was 27%.
As for `CCCCN(CCCC)c1ccc(/C=C/C(=O)c2ccc(CN3CCN(C)CC3)cc2)cc1` [A025, (E)-3-(4Dibutylamino-phenyl)-1-[4-(4-methyl-piperazin-1-ylmethyl)-phenyl]-propenone], the “Inhibition of DHODH” value in series [4] turned out to be 26%. Moreover, the “MIC, A: Staphylococcus aureus ATCC29213” value in series [5] is 9.4 µM (≈ 4.21 µg/mL). Moreover, in series [6], the “MIC, B: Staphylococcus aureus ATCC33591” value stood at 9.4 µM (≈ 4.21 µg/mL). Moreover, in series [7], the “MIC, C: Staphylococcus intermedius #2357” value was found to be 9.4 µM (≈ 4.21 µg/mL). The “MIC, D: Enterococcus faecalis ATCC29212” value in series [8] came to 9.4 µM (≈ 4.21 µg/mL). Also, in [9], the “MIC, E: Enterococcus faecium #17501” value was found to be 9.4 µM (≈ 4.21 µg/mL). For the same compound, in series [10], the “MIC, F: Streptococcus pneumoniae #998” value turned out to be 37.5 µM (≈ 16.8 µg/mL). In the series on Eschericia coli ESS, the “MIC, H: Eschericia coli ESS” value was 75.0 µM (≈ 33.6 µg/mL). The “potency against Gram-positive pathogens in comparison with Licochalcone A” value (“potency against Gram-positive pathogens” for short) in series [11] is “increased potency”.
For the compound `COc1ccc(OC)c(/C=C/C(=O)c2ccccc2CN(C)C)c1` [A029, (E)-3-(2,5-Dimethoxy-phenyl)-1-(2-dimethylaminomethyl-phenyl)-propenone], the “Metabolic turn-over (rat) in vitro” value in series [2] worked out at 3%.
As for `CCCCN(CCCC)c1ccc(/C=C/C(=O)c2ccccc2CN(C)C)cc1` [A030, (E)-3-(4-Dibutylamino-phenyl)-1-(2-dimethylaminomethyl-phenyl)-propenone], in [5], the “MIC, A: Staphylococcus aureus ATCC29213” value is 9.4 µM (≈ 3.69 µg/mL). Moreover, the “MIC, B: Staphylococcus aureus ATCC33591” value in [6] stood at 9.4 µM (≈ 3.69 µg/mL). Further, the “MIC, C: Staphylococcus intermedius #2357” value in [7] worked out at 9.4 µM (≈ 3.69 µg/mL). In addition, the “MIC, D: Enterococcus faecalis ATCC29212” value in series [8] is 18.8 µM (≈ 7.38 µg/mL). In [9], the “MIC, E: Enterococcus faecium #17501” value was determined as 18.8 µM (≈ 7.38 µg/mL). Besides, the “MIC, F: Streptococcus pneumoniae #998” value in series [10] is 18.8 µM (≈ 7.38 µg/mL). Also, in the series with Eschericia coli ESS, the “MIC, H: Eschericia coli ESS” value was found to be 18.8 µM (≈ 7.38 µg/mL) and the “activity against the ESS strain of E. coli” value (“activity … of E. coli” for short) was “considerable activity”. The “potency against Gram-positive pathogens” value in series [11] is “increased potency”.
Regarding `CCCCN(CCCC)c1ccc(/C=C/C(=O)c2ccc(CN(C)C)cc2)cc1` [A033, (E)-3-(4-Dibutylamino-phenyl)-1-(4-dimethylaminomethyl-phenyl)-propenone], in series [5], the “MIC, A: Staphylococcus aureus ATCC29213” value turned out to be 4.7 µM (≈ 1.85 µg/mL). Besides, the “MIC, B: Staphylococcus aureus ATCC33591” value in series [6] came to 9.4 µM (≈ 3.69 µg/mL). Further, in series [7], the “MIC, C: Staphylococcus intermedius #2357” value stood at 4.7 µM (≈ 1.85 µg/mL). Moreover, the “MIC, D: Enterococcus faecalis ATCC29212” value in series [8] stood at 9.4 µM (≈ 3.69 µg/mL). Moreover, the “MIC, E: Enterococcus faecium #17501” value in series [9] stood at 9.4 µM (≈ 3.69 µg/mL). The “MIC, F: Streptococcus pneumoniae #998” value in series [10] worked out at 75.0 µM (≈ 29.4 µg/mL). The “MIC, H: Eschericia coli ESS” value with Eschericia coli ESS worked out at 150.0 µM (≈ 58.9 µg/mL). Moreover, the “potency against Gram-positive pathogens” value in series [11] is recorded as “increased potency”.
For `CCN(CC)Cc1ccccc1C(=O)/C=C/c1ccc(Cl)cc1Cl` [A045, (E)-3-(2,4-Dichloro-phenyl)-1-(2-diethylaminomethyl-phenyl)-propenone], the “Inhibition of DHODH” value in series [4] is 20%.
With `COc1ccc(OC)c(/C=C/C(=O)c2ccccc2CN2CCNCC2)c1` [A049, (E)-3-(2,5-Dimethoxy-phenyl)-1-(2-piperazin-1-ylmethyl-phenyl)-propenone], the “Metabolic turn-over (rat) in vitro” value in series [2] is 0%. Further, the “Solubility in aqueous buffer at pH 7.4” value in [1] came out at 6.3 mg/ml.
As for `COc1ccc(C(=O)/C=C/c2cccc(CN(C)CCN(C)C)c2)cc1` [A069, (E)-3-(3-{[(2-Dimethylamino-ethyl)-methyl-amino]-methyl}-phenyl)-1-(4-methoxy-phenyl)-propenone], the “Solubility in aqueous buffer at pH 7.4” value in series [1] is given as over 10 mg/ml.
Consider `C=CC(C)(C)c1cc(/C=C/C(=O)c2ccccc2CN2CCN(C)CC2)c(OC)cc1Cl` [A083, (E)-3-[4-Chloro-5-(1,1-dimethyl-allyl)-2-methoxy-phenyl]-1-[2-(4-methyl-piperazin-1-ylmethyl)-phenyl]-propenone], for which the “MIC, A: Staphylococcus aureus ATCC29213” value in series [5] is 9.4 µM (≈ 4.26 µg/mL). Further, the “MIC, B: Staphylococcus aureus ATCC33591” value in series [6] was found to be 9.4 µM (≈ 4.26 µg/mL). Also, in series [7], the “MIC, C: Staphylococcus intermedius #2357” value was found to be 18.8 µM (≈ 8.52 µg/mL). The “MIC, D: Enterococcus faecalis ATCC29212” value in series [8] is 18.8 µM (≈ 8.52 µg/mL). The “MIC, E: Enterococcus faecium #17501” value in series [9] was found to be 9.4 µM (≈ 4.26 µg/mL). The “MIC, F: Streptococcus pneumoniae #998” value in series [10] turned out to be 18.8 µM (≈ 8.52 µg/mL). In addition, in the series on Eschericia coli ESS, the “MIC, H: Eschericia coli ESS” value came out at 9.4 µM (≈ 4.26 µg/mL) and the “activity … of E. coli” value is recorded as “considerable activity”. Besides, the “potency against Gram-positive pathogens” value in [11] is on record as “increased potency”.
Take `CCCN(CCC)c1ccc(/C=C/C(=O)c2ccccc2CN(C)C)c(OCC)c1` [A084, (E)-1-(2-Dimethylaminomethyl-phenyl)-3-(4-dipropylamino-2-ethoxy-phenyl)-propenone]: the “activity … of E. coli” value with Eschericia coli ESS is “considerable activity”.
`COc1ccc(C(=O)/C=C/c2ccc(OC)c(CN(C)C)c2)cc1` [A086, (E)-3-(3-Dimethylaminomethyl-4-methoxy-phenyl)-1-(4-methoxy-phenyl)-propenone]: in [1], the “Solubility in aqueous buffer at pH 7.4” value came to 8.9 mg/ml.
Consider `CNCc1cccc(/C=C/C(=O)c2ccc(OC)cc2)c1` [A099, (E)-1-(4-Methoxy-phenyl)-3-(3-methylaminomethyl-phenyl)-propenone], for which, in series [2], the “Metabolic turn-over (rat) in vitro” value was determined as 7%.
For the compound `COc1ccc(Nc2cccnc2)cc1/C=C/C(=O)c1ccccc1CN(C)C` [A102, (E)-1-(2-Dimethylaminomethyl-phenyl)-3-[2-methoxy-5-(pyridin-3-ylamino)-phenyl]-propenone], in [2], the “Metabolic turn-over (rat) in vitro” value was found to be 2%. Further, the “metabolism (turn-over), rat” value in series [2] (rat) came out at 2%.
In the case of `CCCCN(CCCC)c1ccc(/C=C/C(=O)c2ccc(OC)c(CN(C)C)c2)cc1` [A110, (E)-3-(4-Dibutylamino-phenyl)-1-(3-dimethylaminomethyl-4-methoxy-phenyl)-propenone], in series [2], the “Metabolic turn-over (rat) in vitro” value is 6%.
As for `CCCCN(CCCC)c1cccc(/C=C/C(=O)c2ccc(OC)c(CN(C)C)c2)c1` [A129, (E)-3-(3-Dibutylamino-phenyl)-1-(3-dimethylaminomethyl-4-methoxy-phenyl)-propenone], the “MIC, A: Staphylococcus aureus ATCC29213” value in series [5] stood at 4.7 µM (≈ 1.99 µg/mL). The “MIC, B: Staphylococcus aureus ATCC33591” value in [6] came to 9.4 µM (≈ 3.97 µg/mL). Besides, the “MIC, C: Staphylococcus intermedius #2357” value in [7] came out at 9.4 µM (≈ 3.97 µg/mL). Moreover, the “MIC, D: Enterococcus faecalis ATCC29212” value in [8] was 9.4 µM (≈ 3.97 µg/mL). The “MIC, E: Enterococcus faecium #17501” value in series [9] was 9.4 µM (≈ 3.97 µg/mL). For the same compound, the “MIC, F: Streptococcus pneumoniae #998” value in series [10] amounted to 37.5 µM (≈ 15.8 µg/mL). Moreover, in the series on Eschericia coli ESS, the “MIC, H: Eschericia coli ESS” value stood at 9.4 µM (≈ 3.97 µg/mL).
Consider `C=CC(C)(C)c1cc(/C=C/C(=O)c2cccc(CN(C)C)c2)c(OC)cc1O` [A137, (E)-3-[5-(1,1-Dimethyl-allyl)-4-hydroxy-2-methoxy-phenyl]-1-(3-dimethylaminomethyl-phenyl)-propenone], for which, in series [5], the “MIC, A: Staphylococcus aureus ATCC29213” value was 4.7 µM (≈ 1.78 µg/mL). Moreover, the “MIC, B: Staphylococcus aureus ATCC33591” value in series [6] turned out to be 9.4 µM (≈ 3.57 µg/mL). Also, the “MIC, C: Staphylococcus intermedius #2357” value in [7] was 9.4 µM (≈ 3.57 µg/mL). The “MIC, D: Enterococcus faecalis ATCC29212” value in series [8] was determined as 9.4 µM (≈ 3.57 µg/mL). The “MIC, E: Enterococcus faecium #17501” value in series [9] is 9.4 µM (≈ 3.57 µg/mL). For the same compound, in [10], the “MIC, F: Streptococcus pneumoniae #998” value is 37.5 µM (≈ 14.2 µg/mL).
